Test results: patent publication US20260207754A1, “MET PROTEIN DEGRADATION INDUCING COMPOUND” (ONCOZEN CO., LTD., priority 2022, published 2026)

Key:
Type in all cases: cell-based
[1] = test system: H596 cells; assay: Cell viability assay (CCK8); settings: three days treatment
Description: (§1) This experiment involves treating cells with each of the compounds prepared in Examples 1 to 11, and then observing changes in cell cytotoxicity and cell count. The IC50 values, derived from the changes in cell count, can be used to assess the cancer cell growth inhibition and anti-cancer effects of the compound of the present invention.
(§2) Cells (H596 or H1437 cells) were seeded in a 96-well plate at 3×10^3 cells per well and then cultured for more than 12 hours. After removing the media, each well was treated with 200 μl of the respective diluted compounds prepared in Examples 1 to 11. Three days later, the media was removed, and each well was treated with 10 μl of CCK8 reagent+90 μl of media. After 3-4 hours of reaction, the absorbance was measured using an ELISA reader at a wavelength of 450 nm.

[2] = test system: H1437 cells; assay: Cell viability assay (CCK8); settings: three days treatment
Description: as §1, §2

[3] = test system: c-MET (total form); assay: Target protein degradation assay (Western blot); settings: H1437 cells, standard concentration and time 5 μM, 72 hours
Description: Cells (H596 or H1437 cells) were seeded in Φ60 or Φ100 culture dishes to reach 5×10^5 or 1×10^6 cells, and then cultured for more than 12 hours. […] The cells were then harvested, lysed using RIPA buffer, and centrifuged (4° C., 13000 rpm, 15 min), to collect the supernatant in a new tube. Protein quantification was performed using the Bradford Assay, and samples were prepared for loading by boiling at 95° C. Western blotting was performed. The samples were loaded onto an SDS polyacrylamide gel (8% concentration). Electrophoresis was conducted at 80V, and then switched to 100-120V (when the loaded sample moves from the stacking gel to the running gel). After electrophoresis, the polyacrylamide gel was transferred onto the membrane (using transfer buffer diluted at 10× transfer buffer:methanol:D.W=1:2:7 ratio, cold, for 100V, 1 hour or 80V, 2 hours). The membrane was blocked with 5% skim milk for 30 minutes and washed with PBS-T (phosphate-buffered saline with Tween 20) buffer. The primary antibody was diluted in 5% BSA+NaN3 solution and reacted with the membrane for over 12 hours, followed by washing with PBS-T and reaction with 5% skim milk+secondary antibody for 1 hour and 30 minutes. After washing with PBS-T, the ECL solution was reacted with the membrane, and the bands were detected using an imaging device to confirm the degradation of the target protein c-MET.

[4] = test system: c-MET (total form); assay: Target protein degradation assay (Western blot); settings: for c-MET degradation H596: H596 cells, Western blot, standard concentration and time 5 μM, 72 hours; for degradation of the target MET protein: H596 or H1437 cells, summary of Table 3
Description: This experiment assessed the tendency and extent of degradation of the target protein c-MET (total form) in cells treated with each of the compounds prepared in Examples 1 to 11.
Cells (H596 or H1437 cells) were seeded in Φ60 or Φ100 culture dishes to reach 5×10^5 or 1×10^6 cells, and then cultured for more than 12 hours. After removing the media, the cells were treated with each respective compound prepared in Examples 1 to 11 at various conditions-concentrations (0, 2.5, 5, 10 μM), time (0, 6, 8, 24, 48, 72 hours), and standard concentration and time (5 μM, 72 hours) for all compounds. The cells were then harvested, lysed using RIPA buffer, and centrifuged (4° C., 13000 rpm, 15 min), to collect the supernatant in a new tube. Protein quantification was performed using the Bradford Assay, and samples were prepared for loading by boiling at 95° C. Western blotting was performed. The samples were loaded onto an SDS polyacrylamide gel (8% concentration). Electrophoresis was conducted at 80V, and then switched to 100-120V (when the loaded sample moves from the stacking gel to the running gel). After electrophoresis, the polyacrylamide gel was transferred onto the membrane (using transfer buffer diluted at 10× transfer buffer:methanol:D.W=1:2:7 ratio, cold, for 100V, 1 hour or 80V, 2 hours). The membrane was blocked with 5% skim milk for 30 minutes and washed with PBS-T (phosphate-buffered saline with Tween 20) buffer. The primary antibody was diluted in 5% BSA+NaN3 solution and reacted with the membrane for over 12 hours, followed by washing with PBS-T and reaction with 5% skim milk+secondary antibody for 1 hour and 30 minutes. After washing with PBS-T, the ECL solution was reacted with the membrane, and the bands were detected using an imaging device to confirm the degradation of the target protein c-MET.

Compound	IC50 [1] [µM]	IC50 [2] [µM]	c-MET degradation H1437 [3]	c-MET degradation H596 [4]	IC50 ([1]; Homo sapiens, NCI-H596, 72 h) [µM]	IC50 ([2]; Homo sapiens, NCI-H1437, 72 h) [µM]	degradation of the target MET protein [4]
2,4-dihydroxy-N-({4-[(5-{4-[3-(1-{imidazole[1,2-a]pyridin-6-yl}ethyl)-[1,2,3]triazolo[4,5-b]pyrazin-5-yl]pyrazol-1-yl}-5-oxopentyl) carbamoyl]phenyl}methyl)-5-isopropyl-N-methylbenzamide [OZD-MET 05]	4.72	5.71	2 (10% < degradation < 50%: 2)	2 (10% < degradation < 50%: 2)			
CC(C)c1cc(C(=O)N(C)Cc2cccc(C(=O)NCCOCCOC(=O)N3CCC(n4cc(-c5cnc(N)c(O[C@@H](C)c6c(Cl)ccc(F)c6Cl)c5)cn4)CC3)c2)c(O)cc1O (stereo in doubt) [OZD-MET 01, 2-{2-[(3-{[1-(2,4-dihydroxy-5-isopropylphenyl)-N-methylformamido]methyl}phenyl)formamido]ethoxy}ethyl 4-(4-{6-amino-5-[1-(2,6-dichloro-3-fluorophenyl)ethoxy]pyridin-3-yl}pyrazol-1-yl)piperidine-1-carboxylate]			1 (50% < degradation: 1)	1 (50% < degradation: 1)	3.07	3.5	
CC(C)c1cc(C(=O)N(C)Cc2ccc(C(=O)NCCCCC(=O)N3CCC(n4cc(-c5cnc(N)c(O[C@@H](C)c6c(Cl)ccc(F)c6Cl)c5)cn4)CC3)cc2)c(O)cc1O (stereo in doubt) [OZD-MET 03, N-{[4-({5-[4-(4-{6-amino-5-[1-(2,6-dichloro-3-fluorophenyl)ethoxy]pyridine-3-yl}pyrazol-1-yl)piperidin-1-yl]-5-oxopentyl}carbamoyl)phenyl]methyl}-2,4-dihydroxy-5-isopropyl-N-methylbenzamide]			1 (50% < degradation: 1)	1 (50% < degradation: 1)	1.97	2.64	
CC(C)c1cc(C(=O)N(C)Cc2cccc(C(=O)O)c2)c(O)cc1O [Compound (d), reference compound]			No degradation	No degradation			no degradation
CC(C)c1cc(C(=O)N(C)Cc2ccc(C(=O)O)cc2)c(O)cc1O [Compound (i), reference compound]			No degradation	No degradation			no degradation
C[C@@H](Oc1cc(-c2cnn(C3CCNCC3)c2)cnc1N)c1c(Cl)ccc(F)c1Cl [Crizotinib, reference compound]				No degradation	20.3	31.9	no degradation
CC(C)c1cc(C(=O)N(C)Cc2ccc(C(=O)NCCOCCOC(=O)N3CCC(n4cc(-c5cnc(N)c(O[C@@H](C)c6c(Cl)ccc(F)c6Cl)c5)cn4)CC3)cc2)c(O)cc1O [OZD-MET 02]			1 (50% < degradation: 1)	1 (50% < degradation: 1)	2.59	4.06	
CC(C)c1cc(C(=O)N(C)Cc2cccc(C(=O)NCCOCCOC(=O)n3cc(-c4cnc5nnn([C@@H](C)c6ccc7nccn7c6)c5n4)cn3)c2)c(O)cc1O [OZD-MET 04, 2-{2-[(3-{[1-[2,4-dihydroxy-5-isopropylphenyl]-N-methylformamido]methyl}phenyl)formamido]ethoxy}ethyl 4-[3-(1-{imidazole[1,2-a]pyridin-6-yl}ethyl)-[1,2,3]triazolo[4,5-b]pyrazin-5-yl]pyrazole-1-carboxylate]			3 (degradation < 10%: 3)	2 (10% < degradation < 50%: 2)	4.18	4.65	
CC(C)c1cc(C(=O)N(C)Cc2cccc(C(=O)NCCOCCOC(=O)Nc3ccc4nccc(Oc5ccc(NC(=O)C6(C(=O)Nc7ccc(F)cc7)CC6)cc5)c4c3)c2)c(O)cc1O [OZD-MET 06, 2-{2-[(3-{[1-(2,4-dihydroxy-5-isopropylphenyl)-N-methylformamido]methyl}phenyl)formamido]ethoxy}ethyl N-[4-(4-{1-[(4-fluorophenyl)carbamoyl]cyclopropanamido}phenoxy)quinolin-6-yl)carbamate]			2 (10% < degradation < 50%: 2)	2 (10% < degradation < 50%: 2)	3.38	4.25	
CC(C)c1cc(C(=O)N(C)Cc2ccc(C(=O)NCCCCC(=O)Nc3ccc4nccc(Oc5ccc(NC(=O)C6(C(=O)Nc7ccc(F)cc7)CC6)cc5)c4c3)cc2)c(O)cc1O [OZD-MET 07, N′1-{4-[(6-{5-[(4-{[1-(2,4-dihydroxy-5-isopropylphenyl)-N-methylformamido]methyl}phenyl)formamido]pentanamido}quinolin-4-yl)oxy]phenyl}-N1-(4-fluorophenyl)cyclopropane-1,1-dicarboxamide]			2 (10% < degradation < 50%: 2)	1 (50% < degradation: 1)	3.43	3.21	
CC(C)c1cc(C(=O)N(C)Cc2cccc(C(=O)NCCOCCOC(=O)Nc3ccc(-c4cnc5ncc(Cc6ccc7ncccc7c6)n5n4)cc3F)c2)c(O)cc1O [OZD-MET 08, 2-{2-[(3-{[1-(2,4-dihydroxy-5-isopropylphenyl)-N-methylformamido]methyl}phenyl)formamido]ethoxy}ethyl N-{2-fluoro-4-[7-(quinolin-6-ylmethyl)imidazo[1,2-b][1,2,4]triazin-2-yl]phenyl}carbamate]			2 (10% < degradation < 50%: 2)	1 (50% < degradation: 1)	3.08	4.34	
CC(C)c1cc(C(=O)N(C)Cc2ccc(C(=O)NCCCCC(=O)Nc3ccc(-c4cnc5ncc(Cc6ccc7ncccc7c6)n5n4)cc3F)cc2)c(O)cc1O [OZD-MET 09, N-[(4-{[4-({2-fluoro-4-[7-(quinolin-6-ylmethyl)imidazo[1,2-b][1,2,4]triazin-2-yl]phenyl}carbamoyl)butyl]carbamoyl}phenyl)methyl]-2,4-dihydroxy-5-isopropyl-N-methyl-benzamide]			1 (50% < degradation: 1)	2 (10% < degradation < 50%: 2)	4.18	3.11	
CC(C)c1cc(C(=O)N(C)Cc2cccc(C(=O)NCCOCCOC(=O)N3CCC(COc4cnc(-c5cccc(Cn6nc(-c7cccc(C#N)c7)ccc6=O)c5)nc4)CC3)c2)c(O)cc1O [OZD-MET 10, 2-{2-[(3-{[1-(2,4-dihydroxy-5-isopropylphenyl)-N-methylformamido]methyl}phenyl)formamido]ethoxy}ethyl 4-({[2-(3-{[3-(3-cyanophenyl)-6-oxopyridazin-1-yl]methyl}phenyl)pyrimidin-5-yl]oxy}methyl)piperidine-1-carboxylate]			1 (50% < degradation: 1)	1 (50% < degradation: 1)	3.19	3.29	
CC(C)c1cc(C(=O)N(C)Cc2ccc(C(=O)NCCCCC(=O)N3CCC(COc4cnc(-c5cccc(Cn6nc(-c7cccc(C#N)c7)ccc6=O)c5)nc4)CC3)cc2)c(O)cc1O [OZD-MET 11, N-{[4-({5-[4-({[2-(3-{[3-(3-cyanophenyl)-6-oxopyridazin-1-yl]methyl}phenyl)pyrimidin-5-yl]oxy}methyl)piperidin-1-yl]-5-oxopentyl}carbamoyl)phenyl]methyl}-2,4-dihydroxy-5-isopropyl-N-methylbenzamide]			1 (50% < degradation: 1)	2 (10% < degradation < 50%: 2)	3.99	3.44	
